Test results taken from patent US20110009628A1, “Compounds and Compositions for Modulating Lipid Levels and Methods of Preparing Same” (priority 2009, published 2011).

Columns and labels:
Format in all cases: cell-based, human
[1] = tested on: LDL ligand uptake activity in HepG2 cells; assay: DiI-LDL uptake in HepG2 cells (Example 12)
Experimental: The combined beneficial effects of these novel compounds on elevation of LDLR mRNA levels likely through the mechanism of mRNA stabilization and their inhibitory activity towards PCSK9, the secreted protease that degrades LDLR protein, result in strong increases in LDL ligand uptake activity through increased receptor surface abundance. […] Briefly, HepG2 cells (2×10^5 cells/well) in 24-well culture plates were treated with various compounds at 10 and 40 uM concentrations for 20 hours. The fluorescent 1.1′-dioctadecyl-3,3,3′,3′-tetramethylindocarbocyanin perchlorate (DiI-LDL) (Biomedical Technologies, Stoughton, Mass.) at a concentration of 2 μg/ml was added to cells at the end of treatment. After 4 hours, the medium was removed; cells were washed with cold PBS, and were examined immediately under a fluorescent microscope (Nikon) at 200× amplification. The fluorescent intensity in compound-treated cells was compared to that in untreated control cells. […]

[2] = tested on: LDLR mRNA expression in HepG2 cells; assay: LDLR mRNA expression in HepG2 cells, quantitative real-time RT-PCR (Example 12); settings: 24 hours; for fold induction at 10 µM / fold induction at 40 µM: Homo sapiens; for fold induction at 10 µM: read-out: Activity on LDLR mRNA at 10 uM (fold of control); for fold induction at 40 µM: read-out: Activity on LDLR mRNA at 40 uM (fold of control)
Experimental: (§1) The effects of compounds on the mRNA expressions of LDLR and PCSK9 were examined using quantitative real-time RT-PCR assays. HepG2 cells were treated with various compounds at 10 and 40 uM concentrations for 24 hours. Total RNA was isolated and […] was used to generate cDNA in a reaction containing random primers and M-MLV at 37° C. for 1 h in a volume of 25 μL. Real-time PCR was performed on the cDNA using MCEP REALPLEX 2 SYSTEM (Eppendorf) and Universal MasterMix (Applied Biosystems). Human LDLR, PCSK9, and GAPDH Pre-Developed TaqMan Assay Reagents (Applied Biosystems) were used to assess the levels of mRNA expressions in HepG2. The levels of LDLR and PCSK9 mRNA were normalized to that of GAPDH. Each RNA samples was assayed in duplicate. The fold activity was calculated by dividing mRNA abundance in compound treated cells with that of control.

[3] = tested on: PCSK9 mRNA expression in HepG2 cells; assay: PCSK9 mRNA expression in HepG2 cells, quantitative real-time RT-PCR (Example 12); settings: 24 hours
Experimental: as §1

[4] = 40 uM, 20 hours (second symbol of cell)
[5] = 10 uM, 20 hours (first symbol of cell)

Row | SMILES | Activity in LDL uptake (relative to control) [1, 4] | Activity on LDLR mRNA at 10 uM (fold of control) ([2]; 10 uM) | Activity on LDLR mRNA at 40 uM (fold of control) ([2]; 40 uM) | Activity in LDL uptake (relative to control) [1, 5] | fold induction at 10 µM ([2]; 10 uM) | fold induction at 40 µM ([2]; 40 uM) | PCSK9 mRNA level at 10 uM (fold of control) [3] | Activity on PCSK9 mRNA reduction at 40 uM (fold of control) [3] | PCSK9 mRNA expression, in words ([3]; 10 and 40 uM)
1 | COc1ccc2c(c1OS(=O)(=O)c1ccccc1)CN1CCc3cc4c(cc3C1C2)OCCO4 (stereo not shown) [Compound 115, 11-Methoxy-6,7,8,9,14,14a-hexahydro-2H,3H-1,4-dioxano[5,6-g]isoquinolino[3,2-a]isoquinolin-10-yl benzenesulfonate] | +++ | 0.51 ± 0.11 fold of control | 2.65 ± 0.06 fold of control | – | – | – | – | – | –
2 | COc1ccc2c(c1)CCN1Cc3c(ccc(OC)c3OS(=O)(=O)c3ccccc3)CC21 (stereo not shown) [Compound 116, 3,10-Dimethoxy-5,6,7,8,13,13a-hexahydroisoquinolino[2,1-b]isoquinolin-9-yl benzenesulfonate] | +++/+++ | – | – | +++/+++ | 1.41 ± 0.04 | 7.19 ± 1.29 | – | – | –
3 | COc1ccc2c(c1OS(=O)(=O)c1ccccc1)CN1CCc3cc(C)ccc3C1C2 (stereo not shown) [Compound 121, 10-Methoxy-3-methyl-5,6,7,8,13,13a-hexahydroisoquinolino[2,1-b]isoquinolin-9-yl benzenesulfonate] | + | – | – | +++ | 3.56 ± 0.03 | 3.43 ± 0.81 | – | – | –
4 | COc1cc2c(cc1OC)C1Cc3ccc(OC)c(OS(=O)(=O)c4cccc(F)c4)c3CN1CC2 (stereo not shown) [Compound 127, 2,3,10-Trimethoxy-5,6,7,8,13,13a-hexahydroisoquinolino[2,1-b]isoquinolin-9-yl 3-fluorobenzenesulfonate] | +++/+++ | – | – | +++/+++ | 1.8 ± 0.13 | 2.38 ± 0.38 | 0.197 ± 0.014 fold of control | 0.192 ± 0.016 fold of control | strongly inhibits PCSK9 expression
5 | COc1ccc2c(c1)CCN1Cc3c(ccc(OC)c3OS(=O)(=O)c3cccc(F)c3)CC21 (stereo not shown) [Compound 128, 3,10-Dimethoxy-5,6,7,8,13,13a-hexahydroisoquinolino[2,1-b]isoquinolin-9-yl 3-fluorobenzenesulfonate] | +++/+++ | – | – | +++/+++ | 7.52 ± 0.26 | 13.4 ± 0.46 | 0.96 ± 0.00 fold of control | 0.86 ± 0.029 fold of control | –
6 | COc1ccc2c(c1OS(=O)(=O)c1cccc(F)c1)CN1CCc3cc4c(cc3C1C2)OCCO4 (stereo not shown) [Compound 129, 11-Methoxy-6,7,8,9,14,14a-hexahydro-2H,3H-1,4-dioxano[5,6-g]isoquinolino[3,2-a]isoquinolin-10-yl 3-fluorobenzenesulfonate] | ++ | – | – | + | 2.49 ± 0.18 | 1.99 ± 0.13 | 1.57 ± 0.07 fold of control | 1.68 ± 0.41 fold of control | –
7 | COc1ccc2c(c1OS(=O)(=O)c1cccc(F)c1)CN1CCc3cc(C)ccc3C1C2 (stereo not shown) [Compound 130, 10-Methoxy-3-methyl-5,6,7,8,13,13a-hexahydroisoquinolino[2,1-b]isoquinolin-9-yl 3-fluorobenzenesulfonate] | + | – | – | ++ | 4.29 ± 0.65 | 9 ± 1.49 | 2.11 ± 0.11 fold of control | 0.84 ± 0.12 fold of control | –
8 | COC(=O)c1cc2c(cc1OC)CCN1Cc3c(ccc(OC)c3OS(=O)(=O)c3ccccc3)CC21 (stereo not shown) [Compound 131, Methyl 3,10-dimethoxy-9-(phenylsulfonyloxy)-5,6,7,8,13,13a-hexahydroisoquinolino[3,2-a]isoquinoline-2-carboxylate] | +/+ | – | – | +/+ | 0.67 ± 0.05 | 2.25 ± 0.13 | 0.87 ± 0.04 fold of control | 0.72 ± 0.10 fold of control | –
9 | COc1cc2c(cc1CO)C1Cc3ccc(OC)c(OS(=O)(=O)c4ccccc4)c3CN1CC2 (stereo not shown) [Compound 132, 2-(Hydroxymethyl)-3,10-dimethoxy-5,6,7,8,13,13a-hexahydro isoquinolino[2,1-b]isoquinolin-9-yl benzenesulfonate] | + | – | – | ++ | 2.33 ± 0.04 | 6.62 ± 0.9 | 1.85 ± 0.12 fold of control | 0.73 ± 0.15 fold of control | –
10 | CCOc1ccc2c(c1)CCN1Cc3c(ccc(OC)c3OS(=O)(=O)c3ccccc3)CC21 (stereo not shown) [Compound 133, 3-Ethoxy-10-methoxy-5,6,7,8,13,13a-hexahydroisoquinolino[2,1-b]isoquinolin-9-yl benzenesulfonate] | + | – | – | ++ | 4.92 | 6.61 ± 0.16 | 1.04 ± 0.08 fold of control | 0.49 ± 0.01 fold of control | –
11 | COc1ccc2c(c1OS(=O)(=O)c1ccccc1)CN1CCc3ccccc3C1C2 (stereo not shown) [Compound 134, 10-Methoxy-5,6,7,8,13,13a-hexahydroisoquinolino[2,1-b]isoquinolin-9-yl benzenesulfonate] | + | – | – | – | 1.41 ± 0.07 | 6.23 ± 0.64 | 1.25 ± 0.03 fold of control | 0.86 ± 0.02 fold of control | –
12 | COc1cc2c(cc1C(=O)O)C1Cc3ccc(OC)c(OS(=O)(=O)c4ccccc4)c3CN1CC2 (stereo not shown) [Compound 135, 3,10-Dimethoxy-9-(phenylsulfonyloxy)-5,6,7,8,13,13a-hexahydro isoquinolino[3,2-a]isoquinoline-2-carboxylic acid] | + | – | – | – | 1.72 ± 0.13 | 1.86 | 0.97 ± 0.04 fold of control | 1.10 ± 0.14 fold of control | –
13 | COc1cc2c(cc1C(=O)N(C)C)C1Cc3ccc(OC)c(OS(=O)(=O)c4ccccc4)c3CN1CC2 (stereo not shown) [Compound 136, 2-(N,N-dimethylcarbamoyl)-3,10-dimethoxy-5,6,7,8,13,13a-hexahydroisoquinolino[2,1-b]isoquinolin-9-yl benzenesulfonate] | ++ | – | – | + | 0.91 ± 0.05 | 1.92 ± 0.32 | 0.48 ± 0.03 fold of control | 0.62 ± 0.02 fold of control | –
14 | COc1cc2c(cc1OCC(=O)O)C1Cc3ccc(OC)c(OS(=O)(=O)c4ccccc4)c3CN1CC2 (stereo not shown) [Compound 144, 2-[3,10-dimethoxy-9-(phenylsulfonyloxy)-5,6,7,8,13,13a-hexahydroisoquinolino[3,2-a]isoquinolin-2-yloxy]acetic acid] | – | – | – | – | 1.02 ± 0.09 | 2.69 ± 0.31 | 0.99 ± 0.09 fold of control | 1.84 ± 0.15 fold of control | –
15 | COc1ccc2c(c1)CCN1Cc3c(OS(=O)(=O)c4cccc(F)c4)ccc(Br)c3CC21 (stereo not shown) [Compound 149, 12-bromo-3-methoxy-5,6,7,8,13,13a-hexahydroisoquinolino[2,1-b]isoquinolin-9-yl 3-fluorobenzenesulfonate] | +/+ | – | – | +/+ | – | – | – | – | –
16 | COc1ccc2c(c1)CCN1Cc3c(cccc3OS(=O)(=O)c3cccc(F)c3)CC21 (stereo not shown) [Compound 150, 3-methoxy-5,6,7,8,13,13a-hexahydroisoquinolino[2,1-b]isoquinolin-9-yl 3-fluorobenzenesulfonate] | ++ | – | – | + | – | – | – | – | –
17 | COc1ccc2c(c1)CCN1Cc3c(O)cccc3CC21 (stereo not shown) [Compound 151, 3-methoxy-5,6,7,8,13,13a-hexahydroisoquinolino[2,1-b]isoquinolin-9-ol] | + | – | – | – | – | – | – | – | –
